Assay results published in publication PMC8414802, “Hair Cell Generation in Cochlear Culture Models Mediated by Novel γ-Secretase Inhibitors” (Frontiers in Cell and Developmental Biology, 2021).

Tests used:
[1] = test system: Atoh1, Pou4f3, Myo7a expression in otic spheres; assay: Otic sphere assay, hair cell gene expression; format: cell-based, mouse
Description: The generation of otic spheres followed previously described protocols ([Oshima et al., 2009]) with modifications during differentiation phase to test GSIs. Briefly, OCs were dissociated and single cells were deposited in ultralow-cluster plates (Corning) and expanded in “full otic medium” consisting of DMEM/F12, supplemented with N2, B27 (Thermo Fisher), EGF (20 ng/ml; Chemicon), bFGF (10 ng/ml; Chemicon), IGF-1 (50 ng/ml; Chemicon), and heparan sulfate (50 ng/ml; Sigma-Aldrich). After culturing for 3–4 days at 37°C, spheres were collected, plated in cell culture-treated 96 well-plate and cultured in DMEM/F12, supplemented with N2, B27 with/without GSIs for 7 days after which they were lysed for RNA extraction.
Cells or tissue were lysed using RLT Lysis Buffer (Qiagen) and high purity RNA was prepared on the MagNA Pure instrument using MagNA Pure 96 Cellular RNA LV Kit (Roche). Reagents from Thermo Fisher were used for cDNA synthesis by reverse transcription using random hexamers. Resulting cDNA was RNAse H treated and amplified by TaqMan GEX mastermix and PCR primers and probes for human ATOH1 (Hs00944192_s1) and TBP (Hs00427620_m1), mouse Tbp (Mm00446971_m1), Atoh1 (Mm00476035_s1), Hes5 (Mm00439311_g1), Pouf4s (Mm04213795_s1), and Myo7a (Mm01274015_m1) on the Applied Biosystems QuantStudio 7 Flex Real-Time PCR System. Normalized to Tbp, relative gene expression fold-change was quantified and compared between experimental and control conditions by ΔΔCt calculation.
CPD3 and CPD8 were further compared for their potency to induce hair cell gene expression in otic sphere assays ([Oshima et al., 2009]). Cells were first expanded in presence of growth factors, and in a second step differentiated by growth factor removal and GSI treatment. […] This indicated a modest advantage of CPD3 in eliciting expression of the early hair cell marker Atoh1, but similar potency on expression of some later markers of HC differentiation, Pou4f3 and Myo7a (Figure 2A). From the results of two screening assays, CPD3 was selected for additional characterization studies based on its lower IC50 to induce Atoh1/ATOH1 expression in the otic spheres and LS174T cells, respectively.

[2] = test system: hair cell genes (Atoh1, Pou4f3, Myo7a) and supporting cell gene (Hes5) in cochlear organoids; assay: Cochlear organoids from Atoh1-nGFP mice, gene expression by RT-PCR; format: cell-based; settings: mouse organoids, 5 μM, end of differentiation, vs untreated
Description: On day 0, the cochlear sensory epithelium was dissected and the OC was separated from the modiolus and stria vascularis, as described above, from either Wistar rat pups (P2), Lgr5-GFP mice (P0–P2) or Atoh1-GFP mice (P0–P2). To separate the sensory epithelial layer from underlying mesenchyme and neurons, the OC was placed in a 100 μl drop of Matrisperse Cell Recovery Solution (Corning) for 1 h at RT, then delaminated with the aid of forceps. Gentle enzymatic dissociation of hair cells and supporting cells followed with 100 μl drop of TrypLE (Gibco), 20 min at 37°C, then mechanical trituration in DMEM/F12. The cell suspension was centrifuged for 5 min at 500 g at 4°C and resuspended in DMEM/F12 medium supplemented with B27 and N2 (Invitrogen), EGF (50 ng/ml), bFGF (50 ng/ml), IGF (25 ng/ml), CHIR99021 (GSK-3β inhibitor, 3 μM, Merck), valproic acid (HDAC inhibitor, 1 mM, Sigma), 2-phospho-L-ascorbic acid (280 μM, Stemcell Technologies) and 0.01% ampicillin (Sigma). Cells were plated at 2,000 cells per well on 96 wells plate (Corning Costar; ultra-low attachment, round-bottom) to allow aggregation at 37°C. On day 1, Matrigel (GF-depleted, Corning; 2% stock) was added to a final concentration of 0.18 mg/ml. On day 3, cells were transferred to 24 wells plate (ultra-low attachment; Corning Costar), pooling the organoid aggregates from 4 to 5 wells (96 well-plate) to one 24-well, culturing at 37°C and exchanging half medium and Matrigel every other day, On day 10, organoids were differentiated by replacing medium with DMEM/F12 supplemented with B27, N2, CHIR99021 (3 μM), and Notch inhibitors CPD3 (5 μM) or LY411575 (5 μM), and culture was continued as above for another 10 days.
Cells or tissue were lysed using RLT Lysis Buffer (Qiagen) and high purity RNA was prepared on the MagNA Pure instrument using MagNA Pure 96 Cellular RNA LV Kit (Roche). […] Normalized to Tbp, relative gene expression fold-change was quantified and compared between experimental and control conditions by ΔΔCt calculation. […]

SMILES: COc1ccc2c(c1)N1CCC(C)(C)C1=CC(=O)[C@H]2NC(=O)[C@H](C)NC(=O)CCC(F)(F)F [CPD3]
- IC50 ([1]; Mus musculus, 168 h, 7 days differentiation with GSI, read-out: IC50 for Atoh1 upregulation): 6.7 nM
- Induction of Atoh1, Pou4f3 and Myo7a expression ([1]; dose-responsive, p < 0.05): significantly induced
- Atoh1 expression [2]: 8.07 ± 5.6 fold
- Myo7a expression [2]: 9.9 ± 10.5 fold
- Pou4f3 expression [2]: 12.65 ± 11.07 fold
